Data on 14 compounds can be found in BindingDB's records for doi:10.1016/s0968-0896(99)00215-1 (Parke-Davis Pharmaceutical Research, 1999).

Structures are written as SMILES.

The IC50 is the concentration needed to halve the response being measured. A higher IC50 goes with weaker potency. By Ki is commonly meant a measure of affinity in units of concentration, obtained from inhibition or displacement. Low values mean a stronger hold on the target, high ones a looser hold on the target.

One assay addresses T1, Dimer of Gag-Pol polyprotein [489-587] (Human immunodeficiency virus 1, UniProt P12497).
T1 construct: 489-587
The assay is described as follows: Protease Inhibition Assay.
Conditions: not given
The method, then: For determination of IC50 values, HIV-1 protease was added to assay buffer containing inhibitor and the substrate (H-His-Lys-Ala-Arg-Val-Leu- (p-NO2) Phe-Glu-Ala-norleucine-Ser-NH2). The Leu- (p-NO2) Phe bond of the substrate was cleaved by the enzyme, and the substrate and products were separated by reversed-phase HPLC. Absorbance was measured at 220 nm, peak areas were determined, and percentage conversion to product was calculated.
Consider `CCCC1(CCc2ccc(O)cc2)CC(=O)C(Sc2cc(C)c(OCCO)cc2C(C)(C)C)C(=O)O1` (centres undefined) [3-{[2-tert-butyl-4-(2-hydroxyethoxy)-5-methylphenyl]sulfanyl}-4-hydroxy-6-[2-(4-hydroxyphenyl)ethyl]-6-propyl-5,6-dihydro-2H-pyran-2-one], for which the IC50 amounted to 6 nM. This lies in the single-digit nanomolar range. As to `Cc1cc(SC2C(=O)C[C@](CCc3ccc(O)cc3)(C(C)C)OC2=O)c(C(C)(C)C)cc1CO` (some centres undefined) [(3-(2-tert-Butyl-4-hydroxymethyl-5-methyl-phenylsulfanyl)-4-hydroxy-6-[2-(4-hydroxypheny)-ethyl]-6-isopropyl-5,6-dihydro-pyran-2-one], the affinity, expressed as Ki, was 31 nM. As to `Cc1cc(SC2C(=O)CC(CCc3ccc(N)cc3)(CC(C)C)OC2=O)c(C(C)(C)C)cc1CO` (centres undefined) [6-[2-(4-aminophenyl)ethyl]-3-{[2-tert-butyl-4-(hydroxymethyl)-5-methylphenyl]sulfanyl}-4-hydroxy-6-(2-methylpropyl)-5,6-dihydro-2H-pyran-2-one], the 50% inhibitory concentration (IC50) was 2.9 nM. This lies in the single-digit nanomolar range. `Cc1cc(SC2C(=O)C[C@](CCc3ccc(N)cc3)(C(C)C)OC2=O)c(C(C)(C)C)cc1CO` (stereo partly drawn) [(6R)-6-[2-(4-aminophenyl)ethyl]-3-{[2-tert-butyl-4-(hydroxymethyl)-5-methylphenyl]sulfanyl}-4-hydroxy-6-(propan-2-yl)-5,6-dihydro-2H-pyran-2-one] came in with a Ki of 25 nM.

On to `Cc1cc(SC2C(=O)CC(CCc3ccc(N)cc3)(C(C)C)OC2=O)c(C(C)(C)C)cc1CO` (centres undefined) [6-[2-(4-aminophenyl)ethyl]-3-{[2-tert-butyl-4-(hydroxymethyl)-5-methylphenyl]sulfanyl}-4-hydroxy-6-(propan-2-yl)-5,6-dihydro-2H-pyran-2-one], for which the inhibition constant Ki is 0.43 nM. The compound `Cc1cc(SC2C(=O)CC(CCc3ccc(O)cc3)(C3CCCC3)OC2=O)c(C(C)(C)C)cc1OCCO` (centres undefined) [3-{[2-tert-butyl-4-(2-hydroxyethoxy)-5-methylphenyl]sulfanyl}-6-cyclopentyl-4-hydroxy-6-[2-(4-hydroxyphenyl)ethyl]-5,6-dihydro-2H-pyran-2-one] showed an IC50 of 2.8 nM.

The compound `Cc1cc(SC2C(=O)C[C@@](CCc3ccc(O)cc3)(C(C)C)OC2=O)c(C(C)(C)C)cc1CO` (stereo partly drawn) [(6S)-3-{[2-tert-butyl-4-(hydroxymethyl)-5-methylphenyl]sulfanyl}-4-hydroxy-6-[2-(4-hydroxyphenyl)ethyl]-6-(propan-2-yl)-5,6-dihydro-2H-pyran-2-one] came in with an inhibition constant (Ki) of 0.09 nM.

The assay is the same for the next values; noted with them: pH 6.2; 37 °C.
In turn, `Cc1cc(SC2C(=O)CC(CCc3ccc(O)cc3)(C3CCCCC3)OC2=O)c(C(C)(C)C)cc1O` (centres undefined) [3-(2-tert-Butyl-4-hydroxy-5-methyl-phenylsulfanyl)-6-cyclohexyl-4-hydroxy-6-[2-(4-hydroxy-phenyl)-ethyl]-5,6-dihydro-pyran-2-one] yielded a half-inhibitory concentration (IC50) of 2.9 nM. The same measure, in the same setting: the figure for `Cc1cc(SC2C(=O)CC(CCc3ccc(O)cc3)(CC(C)C)OC2=O)c(C(C)(C)C)cc1CO` (centres undefined) [3-{[2-tert-butyl-4-(hydroxymethyl)-5-methylphenyl]sulfanyl}-4-hydroxy-6-[2-(4-hydroxyphenyl)ethyl]-6-(2-methylpropyl)-5,6-dihydro-2H-pyran-2-one] is 3.3 nM. On the same count and under the same terms, the figure for `Cc1cc(SC2C(=O)CC(CCc3ccc(O)cc3)(C3CCCC3)OC2=O)c(C(C)(C)C)cc1CO` (centres undefined) [3-{[2-tert-butyl-4-(hydroxymethyl)-5-methylphenyl]sulfanyl}-6-cyclopentyl-4-hydroxy-6-[2-(4-hydroxyphenyl)ethyl]-5,6-dihydro-2H-pyran-2-one] is 3.1 nM. On the same count and under the same terms, for `Cc1cc(SC2C(=O)CC(CCc3ccc(O)cc3)(C3CCC3)OC2=O)c(C(C)(C)C)cc1CO` (centres undefined) [3-{[2-tert-butyl-4-(hydroxymethyl)-5-methylphenyl]sulfanyl}-6-cyclobutyl-4-hydroxy-6-[2-(4-hydroxyphenyl)ethyl]-5,6-dihydro-2H-pyran-2-one] the value was 2.2 nM. In turn, `Cc1cc(SC2C(=O)CC(CCc3ccc(O)cc3)(C(C)C)OC2=O)c(C(C)(C)C)cc1O` (centres undefined) [PD 178390 Analog 23] returned a Ki of 0.03 nM. That is a picomolar value. Compound `Cc1ccc(C(C)(C)C)c(SC2C(=O)CC(CCc3ccc(O)cc3)(C3CCCCC3)OC2=O)c1` (centres undefined) [3-[(2-tert-butyl-5-methylphenyl)sulfanyl]-6-cyclohexyl-4-hydroxy-6-[2-(4-hydroxyphenyl)ethyl]-5,6-dihydro-2H-pyran-2-one] gave a half-inhibitory concentration (IC50) of 33 nM. In turn, `Cc1ccc(C(C)(C)C)c(SC2C(=O)CC(C)(CCc3ccc(O)cc3)OC2=O)c1` (centres undefined) [(3-(2-tert-Butyl-5-methyl-phenylsulfanyl)-4-hydroxy-6-[2-(4-hydroxy-phenyl)-ethyl]-6-methyl-5,6-dihydro-pyran-2-one] yielded a half-maximal inhibitory concentration (IC50) of 9.5 nM.
